In patent US5256533A, “As a probe of serotonin uptake harmaline” (Board of Regents, The University of Texas System, priority 1990, dated 1993):
Entries after “also recorded” stand apart in the source; their conditions may differ.

How the values were obtained:
[1] = test system: leukocytes and platelets; assay: Harmaline accumulation in blood cells by spectrophotofluorometry; format: cell-based, human
Protocol: (§1) For this experiment, the beta carboline, harmaline was used. […] Prior to the use of a beta carboline to analyze blood tissues, blood was collected, then leukocytes and platelets were gradient separated utilizing a hypaque/centrifugation technique. The leukocytes were then re-suspended in culture media (phosphate buffered saline (PBS) with bovine serum albumin) at a concentration of […]. The cells and platelets may then be incubated with a solution containing antagonist(s) or blockers of undesired neurotransmitter interactions. With harmaline, there is some amount of cross reactivity with the alpha-2 (noradrenaline) receptor. […] The labelled cells were then analyzed using both spectrophotofluorometry and ultraviolet flow cytometry. With the flow cytometry-analyzed tissue an experiment to detect the presence of imipramine, the serotonin uptake system antagonist, was implemented.
In spectrophotofluorometry (SPF), a volume of labeled cells in suspension are analyzed together, the sum of their emitted fluorescence recorded using a spectrophotofluorometer and compared with other samples with the same concentration of cells. […] This method assumes that the fluorescence emitted from a sum of collected sources (cells) increases proportionally with an individual source. […]

[2] = test system: ^3 H-serotonin uptake by retina; assay: Inhibition of 3H-serotonin uptake in retina (FIG. 5); format: cell-based
[3] = target: [^3 h]Noradrenaline binding sites of brain tissue; assay: Inhibition of [3H]noradrenaline binding by brain homogenates; settings: concentration causing 50% inhibition of isotope binding
Protocol: (§2) Samples of brain tissue rich in the respective neurotransmitter binding sites were obtained, homogenized, washed and incubated with a series of beta carboline concentrations. After subsequent additions of tritiated neurotransmitters, the extent of beta carboline inhibition of labeled neurotransmitter binding was measured.

[4] = target: [^3 H]GABA binding sites of brain tissue; assay: Inhibition of [3H]GABA binding by brain homogenates; settings: concentration causing 50% inhibition of isotope binding
Protocol: as §2

[5] = test system: lymphocytes and platelets; assay: Harmaline accumulation in blood cells by ultraviolet flow cytometry; format: cell-based, human
Protocol: as §1, with “receptor. As the blood cells and platelets both have alpha-2 receptors, the noradrenaline antagonist, yohimbine was chosen to block undesired reactivity with these sites. Cells were incubated for 10 minutes with a 100 μM solution of yohimbine. The cells were then divided into numerous samples which were each exposed to increasing concentrations of harmaline (1 μM to 100 μM concentrations were used) for a period of five minutes each.” for “receptor.”
With flow cytometry, a sample of cells was treated prior to analysis, as above. Fluorescence of individual cells was then analyzed sequentially as they passed through detection beams of light in a micro-stream of fluid. Using this method, literally emissions of cells, or "events" were analyzed and statistically computed to elicit accuracy of analysis. In addition, as individual cells are analyzed, more subtle changes in fluorescence ligand-cell association can be appreciated. There are some procedures for measuring the actual number of binding sites on cells which combine flow cytometry with steady-state fluorescence (Steinkamp and Kramer 1979) or radiometric assays (Titus et al. 1981), while others employ fluorescent calibration standards (Sklar et al. 1984). […]

[6] = test system: rat retina; assay: Fluorescent harmaline accumulation in perfused living retina; format: cell-based
Protocol: One test of the serotonin site ligand, harmaline, is in the neuronal tissue of the rat retina. This tissue is known to contain intracellular serotonin. The serotonergic neurotransmitter system in rat retinal neurons has been previously studied and sites of serotonin accumulation have been identified (Redburn and Churchill 1987) primarily using radiolabelled ^3 H-serotonin (see FIG. 2). According to one test of the invention, it was determined that harmaline accumulated in living rat retina tissue in a specific manner. […] The harmaline present in the OPL begins to dissipate when the stained retina is exposed to sodium-free buffer (see FIG. 3, frame B). Exposure of the stained retina to darkness stimulates harmaline release from the OPL (see FIG. 3, frame C). Further, quantitative evaluation of harmaline accumulation was achieved by measuring the amount of fluorescence given off by harmaline when excited with UV-radiation. A light meter was used to generate data. The light meter gathered light emissions from the eyepiece of an ultraviolet microscope. Harmaline's excitation spectrum is 350-390 nm with emission spectra greatest at 480 and 560 nm in the visible range producing a blue green light. Tissue was placed under a microscope in a sealed perfusion chamber through which oxygenated (95% O2 -5% CO2) buffer flowed. Upon administration of harmaline, data from the light meter was standardized to units of harmaline concentration (using standard curves).

[7] = test system: benzodiazepine receptor; settings: Muller et al. 1981; cited from earlier work
[8] = test system: muscarinic cholinergic sites; settings: Muller et al. 1981; cited from earlier work
[9] = test system: serotonin receptors; settings: Glennon 1981; cited from earlier work
[10] = target: [^3 H]Serotonin binding sites of brain tissue; assay: Inhibition of [3H]serotonin binding by brain homogenates; settings: concentration causing 50% inhibition of isotope binding
Protocol: (§3) TABLE 1 illustrates the general inhibitory effects of beta carbolines on neurotransmitter binding by brain tissue. Samples of brain tissue rich in the respective neurotransmitter binding sites were obtained, homogenized, washed and incubated with a series of beta carboline concentrations. After subsequent additions of tritiated neurotransmitters, the extent of beta carboline inhibition of labeled neurotransmitter binding was measured. As shown, a variety of beta carbolines were effective antagonists of several neurotransmitters. […] These beta carbolines may be used as vital stains for the respective neurotransmitter systems, accumulating in living tissue.

[11] = test system: monoamine oxidase A; settings: Fuller et al. 1985; cited from earlier work
[12] = test system: opiate sites; settings: Muller et al. 1981; cited from earlier work
[13] = target: [^3 H]Choline binding sites of brain tissue; assay: Inhibition of [3H]choline binding by brain homogenates; settings: concentration causing 50% inhibition of isotope binding
Protocol: as §2

[14] = target: [^14 C]Dopamine binding sites of brain tissue; assay: Inhibition of [14C]dopamine binding by brain homogenates; settings: read-out: IC50, inhibition binding, concentration causing 50% inhibition of isotope binding
Protocol: as §3, with “After subsequent additions of tritiated neurotransmitters, the extent of beta carboline inhibition of labeled neurotransmitter binding was measured.” left out

[15] = test system: noradrenergic system of blood cells and platelets; assay: THN accumulation in blood cells and platelets, noradrenaline system; format: cell-based; settings: imipramine 100 μM and serotonin 100 μM pretreatment; extrapolated from literature
Protocol: The analysis of a noradrenaline system using the beta carboline tetrahydronorharman (THN) could be tested using the method described with blood cells and platelets. Cells and platelets would be collected, then pre-treated with solutions to block sites of the serotonin system in order to limit interactions to that of the noradrenergic system. Cells would be first incubated for 10 minutes with the serotonin uptake blocker, imipramine at 100 μM, following which serotonin itself was added to make a concentration of 100 μM for an additional 5 minute incubation. The cells and platelets thusly prepared would then be incubated with the beta carboline, THN, at concentrations of 10 nM to 100 μM. […] These values were obtained via extrapolation from pertinent literature on THN and noradrenaline.

[16] = perfusion concentration 5 μM harmaline

Compound	Inhibition of ^3 H-serotonin uptake by retina [2]	IC50 [3] [µM]	IC50 [4] [µM]	IC50 [10] [µM]	IC50 [13] [µM]	IC50 [14] [µM]	other results
7-methoxy-3,4-dihydro-beta-carboline [harmaline]	competitively inhibited	43	238	43	–	–	Nature of accumulation in human lymphocytes ([1]; fluorescence measurement): saturable, concentration-dependant phenomena; EC50 ([1]; yohimbine 100 μM pretreatment, harmaline 1-100 μM, 5 minutes, read-out: EC50 of fluorescent accumulation (spectrophotofluorometry)): 30 µM; Concentration at which accumulation saturates ([5]; at 5 minutes): 75 to 100 µM; EC50 ([5]; yohimbine 100 μM pretreatment, harmaline 1-100 μM, 5 minutes, read-out: EC50 of fluorescent accumulation (flow cytometry)): 25 µM; Accumulation inside versus outside the cell [6]: three times greater inside than outside the cell; Dependence of accumulation in retina [6]: sodium dependent, energy dependent; Harmaline concentration in outer retina relative to control (non-viable) tissue [6, 16]: 3 fold; Harmaline concentration in outer retina relative to surrounding perfusate [6, 16]: 3 fold; Potency at benzodiazepine binding relative to serotonin or dopamine [7]: far more potent antagonist of benzodiazepine binding than it is for serotonin or dopamine; IC50 for muscarinic cholinergic sites relative to other sites [8]: about four times lower than for serotonin or dopamine sites; also recorded: about four times higher than found for benzodiazepine antagonism; Binding affinity for serotonin receptors [9]: high binding affinities; Inhibition of monoamine oxidase A in vivo [11]: potently inhibit; IC50 for opiate sites relative to other sites [12]: about four times lower than for serotonin or dopamine sites; also recorded: about four times higher than found for benzodiazepine antagonism
c1ccc2c3c([nH]c2c1)CNCC3 [1,2,3,4-tetrahydro-beta-carboline]	–	13	153	6	9000	220	THN concentration at which fluorescent accumulation saturates [15]: approximately 10 μM
COc1ccc2c(c1)[nH]c1c(C)nccc12 [7-methoxy-1-methyl-beta-carboline]	–	700	–	27	200	–	–
c1ccc2c(c1)[nH]c1cnccc12 [beta-carboline]	–	80	335	9.1	75	100	–
CN(C)CCCN1c2ccccc2CCc2ccccc21 [imipramine]	antagonized	–	–	–	–	–	Effect on measured harmaline accumulation ([5]; brief incubation with imipramine 25 μM): the measured harmaline accumulation was less
